Key:
[1] = molecular target: T1, Potassium-transporting ATPase (Sus scrofa) (UniProt P18434+P19156); test: Inhibition of procine gastric H+,K+-ATPase at 1 uM in vitro.; type: tissue-based; conditions: Stomach
[2] = molecular target: T1, Potassium-transporting ATPase (Sus scrofa); test: Inhibition of procine gastric H+,K+-ATPase at 10 uM in vitro.; type: tissue-based; conditions: Stomach
[3] = molecular target: T1, Potassium-transporting ATPase (Sus scrofa); test: Inhibition of procine gastric H+,K+-ATPase at 100 uM in vitro.; type: tissue-based; conditions: Stomach
[4] = Vmax value was measured at 5 uM concentration of silyl ether.; type: ADME, Sus scrofa; conditions: pig
[5] = Vmax value was measured at 0 uM concentration of silyl ether.; type: ADME, Sus scrofa; conditions: pig
[6] = Michaelis-Menten constant of the compound.; type: ADME, Sus scrofa; conditions: pig
[7] = Vmax value was measured at 10 uM concentration of silyl ether.; type: ADME, Sus scrofa; conditions: pig
[8] = molecular target: Potassium-transporting ATPase (Sus scrofa, UniProt P19156); test: Tested for inhibitory activity against gastric H+, K+-ATPase; type: tissue-based, Stomach
Potassium-transporting ATPase, sequence (P18434 whole entry): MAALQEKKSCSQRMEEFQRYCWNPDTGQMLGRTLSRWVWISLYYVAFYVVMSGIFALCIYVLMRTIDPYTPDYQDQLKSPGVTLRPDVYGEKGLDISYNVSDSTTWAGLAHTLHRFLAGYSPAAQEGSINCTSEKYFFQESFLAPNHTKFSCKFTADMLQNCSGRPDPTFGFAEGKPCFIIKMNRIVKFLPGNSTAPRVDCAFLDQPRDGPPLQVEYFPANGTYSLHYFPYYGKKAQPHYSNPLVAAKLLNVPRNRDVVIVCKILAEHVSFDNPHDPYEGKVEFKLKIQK
Potassium-transporting ATPase, sequence (P19156 whole entry): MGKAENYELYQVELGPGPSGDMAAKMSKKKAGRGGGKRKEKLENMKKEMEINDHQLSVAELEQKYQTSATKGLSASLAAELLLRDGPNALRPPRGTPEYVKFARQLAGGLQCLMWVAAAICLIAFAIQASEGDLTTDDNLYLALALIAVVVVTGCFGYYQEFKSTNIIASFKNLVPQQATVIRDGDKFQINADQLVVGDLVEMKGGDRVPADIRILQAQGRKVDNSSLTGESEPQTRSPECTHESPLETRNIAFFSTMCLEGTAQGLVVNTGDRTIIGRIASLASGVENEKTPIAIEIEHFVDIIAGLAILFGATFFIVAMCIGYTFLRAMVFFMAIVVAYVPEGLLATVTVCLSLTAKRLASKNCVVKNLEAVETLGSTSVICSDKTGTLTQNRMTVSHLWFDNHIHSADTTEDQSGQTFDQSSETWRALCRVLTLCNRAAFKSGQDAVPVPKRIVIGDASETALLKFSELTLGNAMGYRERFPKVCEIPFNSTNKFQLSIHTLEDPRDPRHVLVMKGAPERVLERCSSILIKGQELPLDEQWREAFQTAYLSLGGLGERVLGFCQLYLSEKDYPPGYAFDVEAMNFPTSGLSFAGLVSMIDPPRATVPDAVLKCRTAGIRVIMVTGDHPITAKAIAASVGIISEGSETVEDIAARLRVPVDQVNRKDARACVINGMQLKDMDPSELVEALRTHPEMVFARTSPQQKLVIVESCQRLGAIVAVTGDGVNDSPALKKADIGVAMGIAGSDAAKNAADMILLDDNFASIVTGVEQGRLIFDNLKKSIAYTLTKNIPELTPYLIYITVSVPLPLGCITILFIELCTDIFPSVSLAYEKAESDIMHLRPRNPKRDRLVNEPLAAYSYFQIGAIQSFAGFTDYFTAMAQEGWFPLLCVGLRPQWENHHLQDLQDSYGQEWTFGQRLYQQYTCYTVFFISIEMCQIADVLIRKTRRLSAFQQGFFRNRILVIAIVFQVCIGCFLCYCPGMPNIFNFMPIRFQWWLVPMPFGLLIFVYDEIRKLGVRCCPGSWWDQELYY

Structure (SMILES) | inhibition [1] [%] | inhibition [2] [%] | inhibition [3] [%] | Vmax [4] [µM/h/mg] | Vmax [5] [µM/h/mg] | Km [6] [µM] | Vmax [7] [µM/h/mg] | IC50 [8] [µM]
CO[C@H]1C[C@@H]2C[C@H](O)c3c(C(=O)O)cccc3[C@]23CC[C@@]1(C)C3 | -6 | 0 | 21 | – | – | – | – | –
CO[C@H]1C[C@@H]2C[C@@H]3OC(=O)c4cccc(c43)[C@]23CC[C@@]1(C)C3 | 1 | 16 | 55 | – | – | – | – | –
CO[C@H]1C[C@@H]2CC(=O)c3ccccc3[C@]23CC[C@@]1(C)C3 | – | 17 | 42 | – | – | – | – | –
CO[C@H]1C[C@@H]2CC(=O)C3=C(CCC[C@@]3(C)CO)[C@]23CC[C@@]1(C)C3 | 9 | 14 | 8 | – | – | – | – | –
C=C1CCC(C)=CC[C@@H]1C[C@H](/C=C(\I)CCCC1OCCO1)O[Si](C)(C)C(C)(C)C | 14 | 63 | 93 | – | – | – | – | –
COCO[C@H]1C[C@@H]2CC(=O)C3[C@@H](C#N)CCC[C@]3(C)[C@]23CC[C@@]1(C)C3 (some centres not stated) | 5 | 7 | 17 | – | – | – | – | –
COCO[C@H]1C[C@@H]2C[C@@H](O[Si](C)(C)C)C3[C@@H](C#N)CCC[C@]3(C)[C@]23CC[C@@]1(C)C3 (some centres not stated) | 4 | 32 | 67 | – | – | – | – | –
COCO[C@H]1C[C@@H]2C[C@@H](O[Si](C)(C)C)C3[C@](C#N)(COCc4ccccc4)CCC[C@]3(C)[C@]23CC[C@@]1(C)C3 (some centres not stated) | 25 | 44 | 52 | – | – | – | – | –
C[C@]12CC[C@]3(C1)[C@H](CC2=O)C[C@@H](OC(=O)c1ccccc1)[C@H]1[C@](C)(C(=O)O)CCC[C@@]13C | 7 | 21 | 62 | – | – | – | – | –
COC(=O)[C@]1(C)CCC[C@@]2(C)[C@H]1[C@H](OC(=O)c1ccccc1)C[C@H]1CC(=O)[C@@]3(C)CC[C@]12C3 | 36 | 74 | 81 | – | – | – | – | –

Further lines, results first:

inhibition [1] [%] | inhibition [2] [%] | inhibition [3] [%] | Vmax [4] [µM/h/mg] | Vmax [5] [µM/h/mg] | Km [6] [µM] | Vmax [7] [µM/h/mg] | IC50 [8] [µM] | Structure (SMILES)
-2 | 9 | 52 | – | – | – | – | – | C[C@]12CCC3=CC(=O)c4ccccc4[C@@]3(CC1)C2
11 | 9 | 34 | – | – | – | – | – | CC1=CCC(CCO)C(=O)CC1 (configuration not stated)
8 | 17 | 17 | – | – | – | – | – | C[C@]12CC[C@]3(C1)C(=CC(=O)c1ccccc13)C[C@@H]2O
18 | 19 | 0 | – | – | – | – | – | C[C@]12CC[C@@]3(C1)c1ccccc1C(=O)C[C@H]3C[C@@H]2O
29 | 50 | 80 | – | – | – | – | – | C=C[C@@]1(C)C[C@@H]1C(=O)CCC(O[Si](C)(C)C(C)(C)C)c1ccccc1I (some centres not stated)
16 | 9 | 61 | – | – | – | – | – | C[C@]12C=CC3=CC(=O)c4ccccc4[C@@]3(CC1)C2
8 | 35 | 63 | – | – | – | – | – | C=C[C@@]1(C)C[C@@H]1C(=O)CCC(O)c1ccccc1I (some centres not stated)
8 | 13 | 20 | – | – | – | – | – | C=C1CCC(C)=CC[C@@H]1C[C@@H](O)C#CCCCC1OCCO1
30 | 74 | 95 | 63 | 125 | 460 | 31 | 8.2 | CC1=CCC(CC(O[Si](C)(C)C(C)(C)C)c2ccccc2I)C(=O)CC1 (configuration not stated)
15 | 63 | 98 | – | – | – | – | – | C=C1CCC(C)=CCC1CC(O[Si](C)(C)C(C)(C)C)c1ccccc1I (configuration not stated)
10 | 19 | 72 | – | – | – | – | – | CC1=CCC(CC(O)c2ccccc2I)C(=O)CC1 (configuration not stated)

From ChEMBL document CHEMBL1150552, “Silyl ethers of cycloheptene, novel proton pump inhibitors obtained during the total synthesis of the scopadulcic acids” (Bioorg Med Chem Lett, 1995)
